Data reported in patent publication US5776970A, “Tryptophan derivatives as protein tyrosine kinase blockers and their use in the treatment of neoplastic diseases” (Yeda Research and Development Co. Ltd., priority 1994, dated 1998).
In brackets after ≈: the same amount, converted by molar mass.

Legend:
[1] = tested on: isoproterenol-mediated lipolysis; test: isoproterenol-mediated lipolysis in rat adipocytes (glycerol release); type: cell-based
Experimental: In general there are two classes of protein kinases (PKs) in mammalian tissues: (a) PKs which phosphorylate tyrosine moieties in proteins (to phosphotyrosine), and (b) PKs which phosphorylate serine and threonine moieties (to phosphoserine and phosphotreonine). […] An example for such a metabolic effect is lipolysis which depends on protein kinase A. Rat adipocytes (prepared by the method of Rodbell, 1964) were incubated with isoproterenol alone (1 μM) or isoproterenol with CBZ-DNPS-TRP-TAU (200 μM) for one hour at 37° C. The amount of glycerol released from the cells was then determined by spectroscopic procedure (Shechter, 1982).

[2] = target: insulin receptor tyrosine kinase (InsRTK) (Rattus norvegicus, UniProt P15127); test: PolyGlu4 Tyr phosphorylation by partially purified (wheat-germ-agglutinin purified) rat liver insulin receptor, cell-free; type: biochemical; parameters: wheat-germ-agglutinin purified rat liver insulin receptor; from tissue; host or cells: rat liver (wheat-germ-agglutinin purified)
Experimental: An assay of PolyGlu4 Tyr phosphorylation by partially purified insulin receptor was run for 30 min at 22° C. in 60 μl of 50 mM Hepes (pH 7.4)-0.1% Triton X-100 containing wheat-germ-agglutinin purified rat liver insulin receptor (1 μg protein), MgCl2 25 mM; MnCl2, 1 mM, ATP 17 μM, insulin 0.1 μM, PolyGlu4 Tyr, 0.17 mg/ml and the indicated concentrations in FIG. 1 of CBZ-DNPS-TRP-TAU. Phosphotyrosine content in PolyGlu4 Tyr was determined by a radioimmunoassay procedure (Shisheva et al., 1991). […] The inhibitory potency of other derivatives of formula I on InsRTK-catalyzed PolyGlu4 Tyr phosphorylation in cell-free experiments was determined. […] For comparison, the IC50 values for AC-TRP-TAU and L-tryptophan are 5 mM and >30 mM, respectively.
(§1) Various derivatives according to the invention in which R^1 is benzyloxycarbonyl (CBZ) or t-butoxycarbonyl (t-Boc), R^2 is --SO3 H or --PO3 H, n is 1,2 or 3, and R^3 is H, 2-nitrophenylthio (NPS) or 2,4-dinitrophenylthio (DNPS) were prepared and examined in cell-free and intact cell systems. The cell-free assay is PolyGlu4 Tyr phosphorylation by partially purified insulin receptor as described in Example 3. The assay in intact cells (namely, lipogenesis) was carried out as described in Example 4.

[3] = tested on: vanadate-stimulated lipogenesis in rat adipocytes; test: vanadate-stimulated lipogenesis in rat adipocytes; type: cell-based; conditions: Adipocyte, intact rat adipocytes, read-out: IC50, insulin-like effects of vanadate ions (lipogenesis)
[4] = tested on: rat adipocytes; test: permeability into cell interiors (intact cell system, lipogenesis); type: cell-based; conditions: graded in words
Experimental: Rat adipocytes were prepared essentially by the method of Rodbell, 1964. The fat pads of three rats were cut into small pieces with scissors and digested in 3 ml of Krebs-Ringer-Bicarbonate (KRB)-buffer containing 0.7% bovine serum albumin (BSA) (pH 7.4) with collagenase (1 mg/ml). The digestion was performed in a 25 ml flexible plastic bottle under an atmosphere of carbogen (95% O2, 5% CO2) for 40 min at 37° C. with vigorous shaking. Five ml of buffer was then added, and the cells were squeezed through a mesh screen. The cells were then allowed to stand for several minutes (in a 15 ml plastic test tube at room temperature, floating) and the buffer underneath was removed. This procedure (suspension, floating and removal of buffer underneath) was repeated three times. For [^14 C-U]glucose incorporation (lipogenesis), the fat cell suspensions (3×10^5 cells/ml) were divided into plastic vials (0.5 ml per vial) and incubated for 60 min at 37° C. under an atmosphere of 95% O2, 5% CO2, with 0.2 mM [U-^14 C]glucose, in either the presence or absence of insulin (100 ng/ml) and the indicated concentrations in FIG. 2 of CBZ-DNPS-TRP-TAU. The reaction was terminated by adding toluene-based scintillation fluid (1.0 ml per vial) and the extracted lipids were counted (Shechter and Karlish, 1980). Fat cell suspensions were pre-incubated for 20 min at 37° C. with increasing concentrations of the inhibitors. Results are expressed in FIG. 2 as the percent of maximal stimulation at the indicated concentrations of inhibitors. In all experiments insulin-stimulated lipogenesis was 4- to 5-fold higher than basal; basal ~2000 cpm per 3×10^5 cells/h; Vinsulin 8000-10,000 cpm per 3×10^5 cells/h.
as §1

[5] = tested on: insulin-stimulated lipogenesis in rat adipocytes; test: insulin-stimulated lipogenesis in rat adipocytes ([U-14C]glucose incorporation); type: cell-based; conditions: Adipocyte; intact rat adipocytes; insulin 100 ng/ml; 20 min pre-incubation, 60 min at 37° C.; read-out: IC50, insulin-dependent lipogenesis
Experimental: The fat pads of three rats were cut into small pieces with scissors and digested in 3 ml of Krebs-Ringer-Bicarbonate (KRB)-buffer containing 0.7% bovine serum albumin (BSA) (pH 7.4) with collagenase (1 mg/ml). […] Five ml of buffer was then added, and the cells were squeezed through a mesh screen. The cells were then allowed to stand for several minutes (in a 15 ml plastic test tube at room temperature, floating) and the buffer underneath was removed. This procedure (suspension, floating and removal of buffer underneath) was repeated three times. […] Fat cell suspensions were pre-incubated for 20 min at 37° C. with increasing concentrations of the inhibitors. Results are expressed in FIG. 2 as the percent of maximal stimulation at the indicated concentrations of inhibitors.

[6] = solubility
[7] = tested on: murine T-cell lymphoma (LB3); test: insulin-dependent proliferation of murine T-cell lymphoma (LB3), thymidine incorporation; type: cell-based
Experimental: (§2) LB cells were removed from the peritoneal cavity of BALB/c mice, washed and resuspended in RPMI-1640. Then a continuous line designated LB3 was established in "LB medium" (50% RPMI-1640 plus 50% DCCM-1 in 10% fetal calf serum (FCS)). The LB3 cells were incubated (37° C., 5% CO2) in microplate wells (Nunc, Roskilde, Denmark) with 0.2 ml RPMI-1640 alone and in the same medium containing insulin, fetal calf serum (FCS) or both, and different concentrations of the compound CBZ-DNPS-TRP-TAU as indicated in FIG. 3. Proliferation capacity was determined by thymidine incorporation (^3 H-TdR, 1 μCi/well, specific activity 5 Ci/mM), added to the cells 24 hours later. In a typical experiment, cpm of ^3 H-thymidine incorporated into 30,000 cells was 12-14 fold higher in the presence of insulin or other mitogens than in their absence.

[8] = tested on: LB3 cells; test: LB3 cell proliferation in response to various mitogens (IL-2, growth hormone, PMA); type: cell-based, murine
Experimental: as §2
Experimental conditions were as described in Example 6 except that lower concentrations of mitogens were applied here (those triggering 50% of maximal proliferation): insulin, interleukin-2 (IL-2), growth hormone and PMA. PMA is an activator of protein kinase C. Protein kinase C in this cell type triggers proliferation by a pathway which is only partially dependent on endogenous tyrosine phosphorylation.

insulin receptor tyrosine kinase (InsRTK), sequence (P15127 764-1383 limits assumed): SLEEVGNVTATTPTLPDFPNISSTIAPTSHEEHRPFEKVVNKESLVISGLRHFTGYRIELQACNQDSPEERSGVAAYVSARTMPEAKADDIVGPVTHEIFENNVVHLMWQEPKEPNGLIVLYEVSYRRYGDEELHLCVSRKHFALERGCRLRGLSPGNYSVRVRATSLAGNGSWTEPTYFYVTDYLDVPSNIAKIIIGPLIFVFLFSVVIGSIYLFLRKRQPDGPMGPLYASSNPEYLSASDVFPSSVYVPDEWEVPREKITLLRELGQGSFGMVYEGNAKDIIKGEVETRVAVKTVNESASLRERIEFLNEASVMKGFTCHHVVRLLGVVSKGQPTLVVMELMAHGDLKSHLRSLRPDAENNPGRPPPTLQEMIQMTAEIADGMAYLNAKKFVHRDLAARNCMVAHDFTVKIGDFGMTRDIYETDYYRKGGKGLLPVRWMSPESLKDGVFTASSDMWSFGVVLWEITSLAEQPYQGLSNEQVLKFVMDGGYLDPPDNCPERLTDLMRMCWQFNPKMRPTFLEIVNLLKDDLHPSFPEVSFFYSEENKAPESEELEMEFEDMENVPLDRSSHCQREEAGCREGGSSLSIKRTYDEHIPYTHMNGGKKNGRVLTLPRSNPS
insulin receptor tyrosine kinase (InsRTK), sequence (P15127 27-759 partner limits assumed): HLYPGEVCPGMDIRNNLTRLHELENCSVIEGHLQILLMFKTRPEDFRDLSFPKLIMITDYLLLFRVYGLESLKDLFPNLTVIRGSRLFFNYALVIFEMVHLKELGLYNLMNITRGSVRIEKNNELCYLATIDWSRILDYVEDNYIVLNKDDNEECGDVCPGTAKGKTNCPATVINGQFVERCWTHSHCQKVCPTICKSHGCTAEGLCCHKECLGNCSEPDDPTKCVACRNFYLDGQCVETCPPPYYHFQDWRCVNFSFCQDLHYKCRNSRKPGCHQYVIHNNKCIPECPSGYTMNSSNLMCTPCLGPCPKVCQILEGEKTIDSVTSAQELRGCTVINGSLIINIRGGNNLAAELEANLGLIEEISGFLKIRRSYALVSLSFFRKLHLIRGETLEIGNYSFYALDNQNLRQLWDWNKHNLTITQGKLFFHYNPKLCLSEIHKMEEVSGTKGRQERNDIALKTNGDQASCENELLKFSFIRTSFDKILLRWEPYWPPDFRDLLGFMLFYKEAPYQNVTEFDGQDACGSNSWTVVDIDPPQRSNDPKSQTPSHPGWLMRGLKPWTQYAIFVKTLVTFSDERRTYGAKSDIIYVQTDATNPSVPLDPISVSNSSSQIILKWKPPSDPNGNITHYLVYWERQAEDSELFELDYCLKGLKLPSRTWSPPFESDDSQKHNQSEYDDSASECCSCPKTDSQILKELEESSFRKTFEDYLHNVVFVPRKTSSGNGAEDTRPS

O=C(N[C@@H](Cc1c(Sc2ccc([N+](=O)[O-])cc2[N+](=O)[O-])[nH]c2ccccc12)C(=O)NCCS(=O)(=O)O)OCc1ccccc1 [CBZ-DNPS-TRP-TAU]
effect in inhibiting isoproterenol-mediated lipolysis ([1]; 200 μM, isoproterenol 1 μM, one hour at 37° C.): negligible effect | Amount of glycerol released ([1]; CBZ-DNPS-TRP-TAU 200 μM plus isoproterenol 1 μM): 154 nmol/3 × 10^5 cells/3 h | activity at 200 µM ([1]; Rattus norvegicus, Adipocyte, CBZ-DNPS-TRP-TAU 200 μM plus isoproterenol 1 μM, read-out: Percent lipolysis): 93% | IC50 [2]: 130 µM | IC50 [3]: 45 µM | Permeability into cell interiors [4]: excellent | IC50 [5]: 170 µM | solubility ([6]; dmf, organic solvent or mixture): 20 mM (≈ 12.9 mg/mL) | solubility ([6]; dmso, organic solvent or mixture): 20 mM (≈ 12.9 mg/mL) | solubility ([6]; water): ≤ 2 mM | concentration range lower than that required to inhibit normal metabolic biological effects of insulin ([7]; LB3 proliferation vs lipogenesis in rat adipocytes (FIG. 2)): ~200 times | IC50 ([7]; Mus musculus, T-cell, LB3, insulin-dependent, thymidine added 24 hours later): 0.95 µM | inhibition of IL-2-dependent proliferation of the T-cell lymphoma ([8]; IL-2 at 50% of maximal proliferation): blocks | inhibition of protein kinase C-dependent proliferation ([8]; PMA at 50% of maximal proliferation): at significantly higher concentrations | inhibition of growth hormone-dependent proliferation of the T-cell lymphoma ([8]; growth hormone at 50% of maximal proliferation): blocks
